The text below walks through data of patent US5536723A, “S-nitroso derivatives of hydrazinoacetic acids, 1-[(acylthio and (mercapto)-1-oxoalkyl]-1,2,34-Tetrahydroquinoline-2-carboxylic acids and alanyl prolines and isoquinolines” (Brigham & Women's Hospital, priority 1994, dated 1996).

Entries after “also recorded” stand apart in the source; their conditions may differ. Peptide text beside a SMILES is read from it.

Experiment [1] relates to soluble guanylate cyclase. To be noted: Ignarro 1980; cited from earlier work.
For experiment [2], the system named is guanylate cyclase in arterial smooth muscle. The conditions noted are these: Horowitz 1983; cited from earlier work.
Experiment [3] relates to bovine femoral artery, response to bradykinin. Description: response of the bovine femoral artery to bradykinin. To be noted: norepinephrine-contracted. How it is done: (§1) Blood Vessel Preparation. Bovine coronary or femoral arteries were obtained from an abattoir immediately after sacrifice of two- to four-week-old calves. Immediately after removal, the vessel was placed in ice-cold physiologic salt solution (PSS) containing 118.3 mM NaCl, 4.7 mM KCl, 2.5 mM CaCl2, 1.2 mM MgSO4, 1.2 mM KH2 PO4, 25.0 mM NaHCO3, 11.1 mM glucose, and 0.026 mM calcium disodium (ethylenedinitrilo)-tetraacetate. The vessels were then cleaned of adventitial tissue and cut into rings of approximately 5 mm lengths. When called for by the protocol, endothelium was removed from a ring by gently rubbing the luminal surface with a watchmaker's forceps. Vascular rings with intact endothelium were then suspended in organ chambers containing 25 ml of PSS at 37° aerated with 95% O2 -5% CO2. The rings were connected to force transducers (Grass FT03C, Quincy, Mass.) and changes in isometric force recorded continuously (Grass Polygraph Model 79B) over a period of 90 minutes. The optimal length-tension relationship was determined for each ring by observing the response to 10^-6 M norepinephrine after increments in tension of 0.5 gm. The functional integrity of the endothelium was assessed by contracting the vessel with 10^-6 M norepinephrine and then observing the response to 3×10^-7 M acetylcholine chloride.
In the bovine femoral artery contracted with a concentration of norepinephrine inducing a half-maximal response, bradykinin induced a biphasic response.

Experiment [4] can be described thus: arterial pressure in the anesthetized rabbit. Format: in vivo. To be noted: 1 mM solution infused in an ear vein, 0.02 to 2.2 ml/min. How it is done:
A 1 mM solution of S-nitrosocaptopril was infused in an ear vein of the rabbit at rates from 0.02 to 2.2 ml/min and the phasic and mean arterial pressure recorded in the femoral artery.

A further experiment deals with bovine femoral artery. Description: relaxation of isolated bovine femoral artery rings contracted with norepinephrine. To be noted: methylene blue 10^-5 M; FIG. 4. How it is done: FIG. 2 depicts a graph showing the effect of S-nitrosocaptopril on the contraction of bovine femoral arteries to norepinephrine.
as §1
Vascular ring segments with intact endothelium were […] contracted with a concentration of norepinephrine inducing a half-maximal response. After a stable contraction had been achieved, the tissue was exposed to increasing concentrations of S-nitrosocaptopril in cumulative half-log increments. […] The apparent IC50 is approximately 1 μM.

A further experiment deals with bovine coronary artery. Description: relaxation of isolated bovine coronary artery rings contracted with potassium chloride.
Description: FIG. 5 depicts a graph showing the relaxation to sodium nitroprusside in the bovine coronary artery in the presence (o; n=7) or absence (; n:12) of a subthreshhold dose of S-nitrosocaptopril. The data are expressed as a percentage of the initial tension generated by potassium chloride (4×10^-2 M; coronary arteries) and are shown as mean ±SEM in each group.
as §1
Thus, to study vasodilating agents in this tissue the vessels were first contracted with potassium chloride (40 mM). Relaxations are expressed as a percent of the concentration to 40 mM potassium chloride.
Relaxations to S-nitrosocaptopril were inhibited by the antagonist of soluble guanylate cyclase, methylene blue (FIG. 4). Sodium nitroprusside induced dose-dependent relaxations of contractions to potassium chloride. The relaxation to sodium nitroprusside was inhibited by subthreshold doses of S-nitrosocaptopril (FIG. 5).

Experiment [5] relates to bovine femoral artery, contraction to angiotensin I. Description: contraction of the bovine femoral artery to angiotensin I. The conditions noted are these: for Contraction to Agonist: Angiotensin I. How it is done: The data are expressed as a percentage of the maximal response to norepinephrine (10^-6 M) and are shown as mean ±SEM in each group (n=7).
as §1

Experiment [6] has as its system bovine femoral artery, contraction to angiotensin II. Description: contraction of the bovine femoral artery to angiotensin II. The conditions noted are these: for Contraction to Agonist: Angiotensin II. How it is done: The data are expressed as a percentage of the maximal response to norepinephrine (10^-4 M) and are shown as mean ±SEM in each group (n=6).
as §1

[7] abbreviates: -Log M 6, Sar 10^-7 M, * p < 0.05.
Setting [8] is: -Log M 6.5, Sar 10^-7 M, * p < 0.05.
Setting [9] is: -Log M 7, Sar 10^-7 M, * p < 0.05.
Where [10] appears, read: -Log M 7.5, Sar 10^-7 M, * p < 0.05.
Where [11] appears, read: -Log M 8, Sar 10^-7 M, * p < 0.05.
[12] abbreviates: saralasin, lower concentrations than 10^-8 M.

Regarding `CC(C)(SN=O)C(N)C(=O)O` (centres unmarked) [S-nitrosothiol of penicillamine], in experiment [1], the “activation of soluble guanylate cyclase (in words)” value is recorded as “capable of activating soluble guanylate cyclase”. For the same molecule, in experiment [2], the “activation of guanylate cyclase in arterial smooth muscle (in words)” value is reported as “potent activators of guanylate cyclase”.

Turning to `NC(N)=NCCC[C@H](NC(=O)[C@H](Cc1ccccc1)NC(=O)[C@@H]1CCCN1C(=O)[C@H](CO)NC(=O)[C@H](Cc1ccccc1)NC(=O)CNC(=O)[C@@H]1CCCN1C(=O)[C@@H]1CCCN1C(=O)[C@@H](N)CCCN=C(N)N)C(=O)O` [bradykinin] (H-RPPGFSPFR-OH), the “response to bradykinin at higher concentrations (in words)” value in experiment [3] (higher concentrations) is “increase in tension which was not affected by removal of the endothelium”. The “response to bradykinin at lower concentrations (in words)” value in experiment [3] (lower concentrations) is recorded as “relaxations that were abolished by removal of the endothelium”.

Take `O=C1O[C@H]([C@@H](O)CO)C(O)=C1O` [Ascorbate]: the “activation of guanylate cyclase in arterial smooth muscle (in words)” value in experiment [2] is reported as “totally ineffective”.

Regarding `O=N[O-].[Na+]` [NaNO2], the “effect on blood pressure (in words)” value in experiment [4] is recorded as “no effect on blood pressure”.

Regarding `CN(C)c1ccc2nc3ccc(=[N+](C)C)cc-3sc2c1` [methylene blue], the “effect of methylene blue on relaxations to S-nitrosocaptopril, femoral artery (in words)” value in the experiment with bovine femoral artery is given as “significantly less than control (p<0.05)”. The “effect of methylene blue on relaxations to S-nitrosocaptopril, coronary artery (in words)” value in the experiment with bovine coronary artery (methylene blue 10^-5 M, FIG. 4) is given as “significantly less than control (p<0.05); also recorded: inhibited”.

For `CNCC(=O)N[C@@H](CCCN=C(N)N)C(=O)N[C@H](C(=O)N[C@@H](Cc1ccc(O)cc1)C(=O)N[C@H](C(=O)N[C@@H](Cc1cnc[nH]1)C(=O)N1CCC[C@H]1C(=O)N[C@@H](C)C(=O)O)C(C)C)C(C)C` [saralasin], the “Contraction to Agonist” value in experiment [5] (setting [7]) was 0.9 ± 0.9 percentage of the maximal cont; in experiment [5] (-Log M 6, Sar 10^-8 M), 35.5 ± 7.0 percentage of the maximal cont; in experiment [5] (-Log M 6, Sar 10^-9 M), 25.6 ± 13.0 percentage of the maximal cont; in experiment [5] (setting [8]), 0 percentage of the maximal cont; in experiment [5] (-Log M 6.5, Sar 10^-8 M), 35.7 ± 22.1 percentage of the maximal cont; in experiment [5] (-Log M 6.5, Sar 10^-9 M), 31.4 ± 10.7 percentage of the maximal cont. Besides, the “Contraction to Agonist” value in experiment [5] (setting [9]) was 0 percentage of the maximal cont; in experiment [5] (-Log M 7, Sar 10^-8 M, * p < 0.05), 19.6 ± 7.0 percentage of the maximal cont; in experiment [5] (-Log M 7, Sar 10^-9 M), 33.0 ± 12.6 percentage of the maximal cont; in experiment [5] (setting [10]), 0 percentage of the maximal cont; in experiment [5] (-Log M 7.5, Sar 10^-8 M, * p < 0.05) it was 16.3 ± 9.4 percentage of the maximal cont; in experiment [5] (-Log M 7.5, Sar 10^-9 M), 22.6 ± 10.1 percentage of the maximal cont. For the same molecule, the “Contraction to Agonist” value is on record as 0 percentage of the maximal cont in experiment [5] (setting [11]); 7.9 ± 7.9 percentage of the maximal cont in experiment [5] (-Log M 8, Sar 10^-8 M); 3.9 ± 1.5 percentage of the maximal cont in experiment [5] (-Log M 8, Sar 10^-9 M); 0 percentage of the maximal cont in experiment [5] (-Log M 8.5, Sar 10^-7 M); 1.6 ± 1.6 percentage of the maximal cont in experiment [5] (-Log M 8.5, Sar 10^-8 M); 0 percentage of the maximal cont in experiment [5] (-Log M 8.5, Sar 10^-9 M). Moreover, the “Contraction to Agonist” value in experiment [5] (-Log M 9, Sar 10^-7 M) is on record as 0 percentage of the maximal cont; in experiment [5] (-Log M 9, Sar 10^-8 M) it was 0 percentage of the maximal cont; in experiment [5] (-Log M 9, Sar 10^-9 M), 0 percentage of the maximal cont; in experiment [6] (setting [7]), 6.0 percentage of the maximal cont; in experiment [6] (-Log M 6, Sar 10^-8 M) it was 32.8 ± 21.0 percentage of the maximal cont; in experiment [6] (-Log M 6, Sar 10^-9 M), 51.8 ± 18.8 percentage of the maximal cont. Also, the “Contraction to Agonist” value in experiment [6] (setting [8]) is 9.2 ± 5.3 percentage of the maximal cont; in experiment [6] (-Log M 6.5, Sar 10^-8 M) it was 32.8 ± 20.4 percentage of the maximal cont; in experiment [6] (-Log M 6.5, Sar 10^-9 M), 51.8 ± 18.8 percentage of the maximal cont; in experiment [6] (setting [9]), 3.2 ± 1.8 percentage of the maximal cont; in experiment [6] (-Log M 7, Sar 10^-8 M) it was 32.4 ± 17.3 percentage of the maximal cont; in experiment [6] (-Log M 7, Sar 10^-9 M), 51.8 ± 18.8 percentage of the maximal cont. The “Contraction to Agonist” value in experiment [6] (setting [10]) is on record as 2.8 ± 2.8 percentage of the maximal cont; in experiment [6] (-Log M 7.5, Sar 10^-8 M) it was 24.0 ± 13.8 percentage of the maximal cont; in experiment [6] (-Log M 7.5, Sar 10^-9 M), 43.4 ± 16.9 percentage of the maximal cont; in experiment [6] (setting [11]) it was 1.7 ± 1.7 percentage of the maximal cont; in experiment [6] (-Log M 8, Sar 10^-8 M), 10.7 ± 8.1 percentage of the maximal cont; in experiment [6] (-Log M 8, Sar 10^-9 M), 34.0 ± 12.9 percentage of the maximal cont. For the same molecule, the “Contraction to Agonist” value in experiment [6] (-Log M 8.5, Sar 10^-7 M) is listed as 0 percentage of the maximal cont; in experiment [6] (-Log M 8.5, Sar 10^-8 M), 0.9 ± 0.9 percentage of the maximal cont; in experiment [6] (-Log M 8.5, Sar 10^-9 M) it was 18.5 ± 9.6 percentage of the maximal cont; in experiment [6] (-Log M 9, Sar 10^-7 M), 0 percentage of the maximal cont; in experiment [6] (-Log M 9, Sar 10^-8 M), 0 percentage of the maximal cont; in experiment [6] (-Log M 9, Sar 10^-9 M), 2.4 ± 1.2 percentage of the maximal cont. Besides, the “effect of saralasin on contractions to angiotensin I (in words)” value is listed as “attenuated contractions” in experiment [5] (saralasin 10^-7 M), “inhibited contractions to angiotensin I” in experiment [5] (saralasin 10^-8 M) and “no effect” in experiment [5] (setting [12]). Besides, the entries for the “effect of saralasin on contractions to angiotensin II (in words)” value in experiment [6] (saralasin 10^-7 M) and in experiment [6] (setting [12]) were “attenuated contractions” and “no effect”, respectively.

Turning to `[Cl-].[K+]` [potassium chloride], the “stable contraction induced by potassium chloride” value in the experiment on bovine coronary artery (40 mM) amounted to 7.3 ± 4.3 g.
